Results as given in patent US8404691B2, “Imidazothiazole derivatives having proline ring structure” (Daiichi Sankyo Company, Limited, priority 2009, dated 2013).

Experiments:
[1] = tested on: human lung cancer-derived cell line NCI-H460 having wild-type p53; assay: Cell growth inhibition assay (MTT); format: cell-based; settings: 72 h, NCI-H460 cells, culturing 3 days, read-out: anti-cellular effect GI50 (50% growth inhibition concentration)
Description: A cell growth inhibition assay was conducted using human lung cancer-derived cell line NCI-H460 having wild-type p53.
NCI-H460 cells were suspended in a medium (RPMI1640 medium containing 10% fetal bovine serum) and the suspension was inoculated in an amount of 500 cells/150 μL/well to a 96-well multiwell plate. A test compound was dissolved in DMSO and this solution was diluted with medium to prepare a sample solution (DMSO concentration: 1% or lower). On the next day of inoculation, medium nonsupplemented with the test compound or the sample solution was added in an amount of 50 μL/well. The MTT assay was conducted immediately after the medium was added in an amount of 50 μL on the next day of cell inoculation, and after the sample solution or the medium was added to cells followed by culturing at 37° C. for 3 days in a 5% CO2 atmosphere. The MTT assay was conducted as shown below.
A 5 mg/mL MTT (3-(4,5-dimethylthiazol-2-yl)-2,5-diphenyltetrazolium bromide, Sigma-Aldrich Co., M-2128) solution was prepared using a phosphate buffer solution (Dulbecco's Phosphate-buffered Saline). This MTT solution was added in an amount of 20 μL/well. Then, the plate was cultured at 37° C. for 4 hours in a 5% CO2 atmosphere. The plate was centrifuged at 1200 rpm for 5 minutes and then the culture supernatant was removed by aspiration using a dispenser. DMSO was added in an amount of 150 μL/well to dissolve generated formazan. The plate was stirred using a plate mixer for uniform color development from each well. The absorbance of each well was measured under conditions of OD 540 nm and reference 660 nm using a plate reader (SpectraMax PLUS384, Molecular Devices, CA, USA).
The OD value measured on the day of adding the sample solution was defined as S. The OD value measured three days after addition of the sample solution was defined as T. The OD value measured three days after addition of the DMSO dilution was defined as C. T/C (%) was determined at each concentration according to the calculation formula shown below to prepare a dose response curve, from which 50% growth inhibition concentration (GI50 value) was calculated. T/C(%)=(T−S)/(C−S)×100

Mdm2/p53 binding = biological target: T1, Mdm2/p53 binding (Homo sapiens, UniProt Q00987, L33E); assay: Mdm2/p53 binding assay (HTRF, His-p53 and GST-Mdm2); settings: His-p53 (aa 1-132) and GST-Mdm2 (aa 25-108, L33E), 6.25 nM each, 25° C. for 1 hour
T1 construct: Mdm2 amino acids at positions 25 to 108
T1 sequence (Q00987 25-108 L33E): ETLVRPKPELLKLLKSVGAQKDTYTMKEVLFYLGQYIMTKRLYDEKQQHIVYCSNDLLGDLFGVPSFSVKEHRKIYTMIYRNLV
Description: Next, a test compound was diluted with DMSO to produce protein buffer solution containing 10% dilution, and this buffer solution was added in an amount of 4 μL/well to the plate.
These dilutions were added in an amount of 8 μL/well (total reaction solution volume: 20 μl/well). Then, the plate was left at 25° C. for 1 hour.
The R value calculated from the well supplemented with His-p53, GST-Mdm2, the test compound, and each antibody was defined as R (sample). The R value calculated from the well supplemented with His-p53, GST-Mdm2, and each antibody but without the test compound was defined as R (control). The R value calculated from the well supplemented with GST-Mdm2, the test compound, and each antibody but without His-p53 was defined as R (background). T/C was calculated from the formula shown below. An IC50 value for Mdm2/p53 binding was calculated by sigmoid fitting. T/C=(R(sample)−R(background))/(R(control)−R(background))

[2] = Metabolic stability test (microsomal metabolism); format: in vitro ADME; settings: human liver microsomes, 37° C., 30 minutes after addition of NADP+; also: tested at 1.1 µM
Description: 100 μL of 100 mM phosphate buffer solution (pH 7.4) containing 3 μM test compound was added to 100 μL of reaction solution containing 100 mM phosphate buffer solution (pH 7.4), 30 mM glucose 6-phosphate, 10 mM MgCl2.6H2O, 3 units/mL glucose 6-phosphate 1-dehydrogenase, and 0.3 to 1.5 mgP/mL human liver microsomes and the mixture was incubated at 37° C. for 20 minutes. Then, 70 μL of 100 mM phosphate buffer solution (pH 7.4) containing 3 mM NADP+ was added and the mixture was further incubated at 37° C. for 30 minutes to conduct a microsomal metabolism test. The compound was quantified by the internal standard method using a quadrupole mass spectrometer connected to a high performance liquid chromatography apparatus. The metabolic stability (residual percentage of compound: MS %) was determined according to the following formula: MS(human)(%)=(peak area ratio of test compound after addition of NADP+ and incubation for 30 minutes)/(peak area ratio of test compound before addition of NADP+)×100.
(peak area ratio: peak area of test compound divided by that of internal standard substance)

Compound | GI50 [1] | IC50 (Mdm2/p53 binding) | MS (human) % (metabolic stability, residual percentage of compound) [2]
CC[C@@H]1CNC2(CC2)CN1C(=O)[C@@H]1C[C@@H](F)CN1C(=O)C1=C(C(C)C)N2C(=N[C@@](C)(c3ccc(Cl)cc3)[C@H]2c2ccc(Cl)cc2)S1 [Example 22] | < 400 nM | 2.6 nM | 60%
CC(C)C1=C(C(=O)N2C[C@H](F)C[C@H]2C(=O)N2CCNC3(CC3)C2)SC2=N[C@@](C)(c3ccc(Cl)cc3)[C@@H](c3ccc(Cl)c(F)c3)N21 [Example 23] | < 400 nM | 1.6 nM | 24%
CC(C)C1=C(C(=O)N2C[C@H](F)C[C@H]2C(=O)N2CCNC3(CC3)C2)SC2=N[C@@](C)(c3ccc(Cl)nc3)[C@@H](c3ccc(Cl)cc3)N21 [Example 26] | 400 to 2500 nM | 2.7 nM | 57%
CC(C)C1=C(C(=O)N2C[C@H](F)C[C@H]2C(=O)N2CC3(CC3)NC[C@@H]2C)SC2=N[C@@](C)(c3ccc(Cl)nc3)[C@@H](c3ccc(Cl)cc3)N21 [Example 27] | < 400 nM | 1.9 nM | 91%
CC(C)C1=C(C(=O)N2C[C@H](F)C[C@H]2C(=O)N2CC3(CC3)NC[C@H]2C)SC2=N[C@@](C)(c3ccc(Cl)nc3)[C@@H](c3ccc(Cl)cc3)N21 [Example 28] | 400 to 2500 nM | 3.1 nM | 51%
CC[C@H]1CNC2(CC2)CN1C(=O)[C@@H]1C[C@@H](F)CN1C(=O)C1=C(C(C)C)N2C(=N[C@@](C)(c3ccc(Cl)nc3)[C@H]2c2ccc(Cl)cc2)S1 [Example 29] | < 400 nM | 2.6 nM | 96%
CC[C@@H]1CNC2(CC2)CN1C(=O)[C@@H]1C[C@@H](F)CN1C(=O)C1=C(C(C)C)N2C(=N[C@@](C)(c3ccc(Cl)nc3)[C@H]2c2ccc(Cl)cc2)S1 [Example 30] | 400 to 2500 nM | 3.1 nM | 62%
CC(C)C1=C(C(=O)N2C[C@H](F)C[C@H]2C(=O)N2CC3(CC3)NC[C@@H]2CF)SC2=N[C@@](C)(c3ccc(Cl)nc3)[C@@H](c3ccc(Cl)c(F)c3)N21 [Example 31] | < 400 nM | 3.1 nM | 6%
